In patent US9260436B2 (Sumitomo Chemical Company, Limited, priority 2012, dated 2016) one finds controlling value and pest or weed control data, which are given here for nine molecules.

Bounds are passed on as bounds.

One assay relates to Aphis gossypii. The experiment in a line: Test Example 2: foot drench of cucumber seedling, then inoculation with Aphis gossypii. It counts as in vivo. Particulars: 500 ppm, 5 ml drenched at foot of cucumber seedling, 7 days then inoculation, further 6 days. As for the experimental part: On the other hand, a cucumber seedling (the second true leaf stage) planted in a plastic cup was drenched at its foot with 5 ml of the test drug solution, and kept in a greenhouse at 25° C. for 7 days. On the cucumber leaf surface was inoculated 30 Aphis gossypii (whole stage), and further kept in the greenhouse for 6 days, then the number of surviving Aphis gossypii parasitized on the leaves of the cucumber was examined, and the controlling value was calculated according to the following equation: Controlling value (%)={1−(Cb×Tai)/(Cai×Tb)}×100 wherein the symbols represent as follows: Cb: the number of insects in a non-treated section before treatment, Cai: the number of insects in a non-treated section on observation, Tb: the number of insects in a treated section before treatment, Tai: the number of insects in a treated section on observation, wherein the non-treated section refers to a section where the test drug solution prepared by diluting the formulation not containing the compound of the present invention as in Formulation Example 5 with the same amount of water as in the treated section was sprayed.

The test system of assay [1] is Haemaphysalis longicornis. As to the kind of experiment: Test Example 11: coated screw tube contact test, Haemaphysalis longicornis nymphal ticks. The class given is in vivo. Particulars: 48 h, 2 mg compound in 0.2 mL acetone coated on inner wall of screw tube, after 2 days, read-out: death rate. As for the experimental part:
2 mg of each of Compounds of Present Invention 6, 8, 10, 26, 28, 29, 33, 35 and 37 was weighed in a screw tube (Maruemu No. 5; 27×55 mm), and 0.2 mL of acetone was added thereto and sealed with a cap to dissolve the compound. The screw tube was rotated and inverted to uniformity coat the drug solution onto the whole inner wall of the tube. After removing the cap, the solution was air-dried for about 2 hours, then non-blood-sucking nymphal ticks, Haemaphysalis longicornis (5 ticks/group) were released, and the tube was sealed with the cap. After 2 days, the number of dead ticks was examined, and the death rate was calculated according to the following equation: Death rate (%)=100×(Number of dead ticks/Number of tested ticks).

In the assay with Aphis gossypii, `CCS(=O)(=O)c1ccccc1-c1cnc2nc(C(F)(F)F)cn2c1` displayed a controlling value of at least 90%.

As for `CCCNc1nc(-c2ccccc2SCC)nc2cc(C(F)(F)F)ccc12` [Compound of Present Invention 8, 2-(2-ethylsulfanylphenyl)-4-propylamino-7-trifluoromethylquinazoline], in assay [1], the pest or weed control at 2 mg/tube is 100%.

`CCCNc1nc(-c2ccccc2S(=O)(=O)CC)nc2cc(C(F)(F)F)ccc12` [Compound of Present Invention 10, 2-(2-ethylsulfonylphenyl)-4-propylamino-7-trifluoromethylquinazoline]: the pest or weed control at 2 mg/tube in assay [1] was determined as 100%.

With `CCSc1ccccc1-c1ccc2nc(C(F)(F)F)cn2c1` [Compound of Present Invention 26, 6-(2-ethylsulfanylphenyl)-2-trifluoromethylimidazo[1,2-a]pyridine], the pest or weed control at 2 mg/tube in assay [1] came to 100%.

In the case of `CCSc1ccccc1-c1ccc2nc(C(F)(F)F)cn2c1C` [Compound of Present Invention 28, 6-(2-ethylsulfanylphenyl)-5-methyl-2-trifluoromethylimidazo [1,2-a]pyridine], the pest or weed control at 2 mg/tube in assay [1] was found to be 100%.

`CCSc1ccccc1-c1ccc2nc(C(F)(F)C(F)(F)F)cn2c1C` [Compound of Present Invention 29, 6-(2-ethylsulfanylphenyl)-5-methyl-2-pentafluoroethylimidazo[1,2-a]pyridine]: in assay [1], the pest or weed control at 2 mg/tube came out at 100%.

On to `CCSc1ccccc1-c1ccc2nc(C(F)(F)F)cn2n1` [Compound of Present Invention 33, 6-(2-ethylsulfanylphenyl)-2-trifluoromethylimidazo[1,2-b]pyridine], for which the pest or weed control at 2 mg/tube in assay [1] was determined as 100%.

Take `CCSc1ccccc1-c1cnc2nc(C(F)(F)F)cn2c1` [Compound of Present Invention 35, 6-(2-ethylsulfanylphenyl)-2-trifluoromethylimidazo[1,2-a]pyrimidine]: in assay [1], the pest or weed control at 2 mg/tube amounted to 100%.

Take `CCSc1ccccc1-c1ccn2cc(C(F)(F)F)nc2c1` [Compound of Present Invention 37, 7-(2-ethylsulfanylphenyl)-2-trifluoromethylimidazo[1,2-a]pyridine]: in assay [1], the pest or weed control at 2 mg/tube is 100%.
